Experimental data published in patent publication US20150374709A1, “TETRA-SUBSTITUTED NDGA DERIVATIVES VIA ETHER BONDS AND CARBAMATE BONDS AND THEIR SYNTHESIS AND PHARMACEUTICAL USE” (ERIMOS PHARMACEUTICALS LLC, priority 2006, published 2015).

What was measured:
Melanoma cell lines = assay: NCI DTP human tumor cell line screen, melanoma panel; format: cell-based; details: Melanoma (8 cell lines)
Description: (§1) The United States National Cancer Institute (NCI) provides a developmental therapeutics program (DTP) (http://dtp.nci.nih.gov/branches/btb/ivelsp.html) to screen submitted substances in support of cancer drug discovery. The In Vitro Cell Line Screening Project (IVCLSP) is a dedicated service providing direct support to the DTP anticancer drug discovery program and is designed to screen up to 3,000 compounds per year for potential anticancer activity. The operation of this screen utilizes 60 different human tumor cell lines, representing leukemia, melanoma and cancers of the lung, colon, brain, ovary, breast, prostate, and kidney. The aim is to prioritize for farther evaluation, synthetic compounds or natural product samples showing selective growth inhibition or cell killing of particular tumor cell lines. This screen is unique in that the complexity of a 60 cell line dose response produced by a given compound results in a biological response pattern which can be utilized in pattern recognition algorithms (COMPARE program. See: http://dtp.nci.nih.gov/docs/compare/compare.html). Using these algorithms, it is possible to assign a putative mechanism of action to a test compound, or to determine that the response pattern is unique and not similar to that of any of the standard prototype compounds included in the NCI database. […]

Prostate cell lines = assay: NCI DTP human tumor cell line screen, prostate panel; format: cell-based; details: Prostate (2 cell lines)
Description: as §1

[1] = test system: Ovarian Cancer cell lines; assay: NCI DTP human tumor cell line screen, ovarian cancer panel; format: cell-based; details: Ovarian Cancer (6 cell lines)
Description: as §1

Colon Cancer cell lines = assay: NCI DTP human tumor cell line screen, colon cancer panel; format: cell-based; details: Colon Cancer (7 cell lines)
Description: as §1

CNS cell lines = assay: NCI DTP human tumor cell line screen, CNS panel; format: cell-based; details: CNS (6 cell lines)
Description: as §1

[2] = Non-specific binding to 24-well assay plate without cells; format: in vitro ADME; details: single well of a 24-well assay plate without cells, nominal conc. 1.0 μM, single well of 24-well plate without cells
Experimental: To determine the extent of non-specific binding of the sample to the assay plate, the sample solution was incubated under the conditions described above in a single well of a 24-well assay plate. After 90 minutes, the sample was removed from each well for analysis. After all samples were collected, lucifer yellow solution was added to each monolayer at a final concentration of 100 μM. The inserts were placed in a new receiver plate containing transport buffer. After a 30 min. incubation on an orbital shaker (50 rpm) at 37° C., with ambient humidity and CO2, samples were removed from the receiver chamber to measure percent lucifer yellow flux.
The recovery of Compound A from the apical and basolateral chambers (mass balance) as well as from a single well of a 24-well culture plate without cells (non-specific binding) at the end of the incubation is reported in Table 9.

In the case of C[C@H](Cc1ccc(OCCCN2CCCCC2)c(OCCCN2CCCCC2)c1)[C@@H](C)Cc1ccc(OCCCN2CCCCC2)c(OCCCN2CCCCC2)c1 [Compound A, 1,4-bis{3,4-bis[3-(piperidin-1-yl)propoxy]phenyl}-2,3-dimethyl-(2R,3S)-butane], the “Mean Growth Percent at 10 μM” value (Melanoma cell lines) is reported as −92.38%, the “Mean Growth Percent at 10 μM” value (Prostate cell lines) is reported as −95.47% and the “Mean Growth Percent at 10 μM” value [1] is reported as −85.89%. The “Mean Growth Percent at 10 μM” value (Colon Cancer cell lines) was −94.08%, the “Mean Growth Percent at 10 μM” value (CNS cell lines) was −93.97% and the recovery at 90 min, 1 μM [2] was 13%.
